Reference: the supplement of paper PMC11061612

Tests used:
Assay in all cases: Bliss excess, mean over the matrix (fraction); higher = more synergy
[1] = tested on: LC4-1 (B-Lymphoblastic Leukemia)
Summary of the method: (§1)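 Cell lines in DMEM/F12 or RPMI with 10% FBS were plated in 1536-well plates, held 24 hours at 37°C, 5% CO2, then given two-drug dose matrices for 72 hours (DMSO typically 0.2%). Viability was read by CellTiter-Glo 2.0 luminescence and scaled as inhibition from 0 (vehicle wells) to 1 (blank wells). Combination Emax is the second-highest inhibition in the matrix; Bliss excess is observed combination effect minus expected EA + EB − EA·EB, EA and EB being single-agent effects.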

[2] = tested on: NB7 (Neuroblastoma)
Summary of the method: as §1

[3] = tested on: NCI-H1573 (Lung Adenocarcinoma)
Summary of the method: as §1

[4] = tested on: KYSE-50 (Esophageal Squamous Cell Carcinoma)
Summary of the method: as §1

[5] = tested on: KLE (Endometrial Carcinoma)
Summary of the method: as §1

[6] = tested on: OCUB-M (Breast Carcinoma)
Summary of the method: as §1

[7] = tested on: JHH-7 (Hepatocellular Carcinoma)
Summary of the method: as §1

[8] = tested on: NCI-H513 (Other Solid Carcinomas)
Summary of the method: as §1

[9] = tested on: NCI-H2405 (Lung Adenocarcinoma)
Summary of the method: as §1

[10] = tested on: PFSK-1 (Other Solid Carcinomas)
Summary of the method: as §1

[11] = tested on: NCI-H322M (Lung Adenocarcinoma)
Summary of the method: as §1

[12] = tested on: OVISE (Ovarian Carcinoma)
Summary of the method: as §1

[13] = tested on: SNU-C1 (Colorectal Carcinoma)
Summary of the method: as §1

[14] = tested on: NCI-N87 (Gastric Carcinoma)
Summary of the method: as §1

[15] = tested on: SCC-3 (B-Cell Non-Hodgkin's Lymphoma)
Summary of the method: as §1

[16] = tested on: KINGS-1 (Low Grade Glioma)
Summary of the method: as §1

[17] = tested on: A704 (Kidney Carcinoma)
Summary of the method: as §1

[18] = tested on: SCC-9 (Oral Cavity Carcinoma)
Summary of the method: as §1

[19] = tested on: EW-13 (Ewing's Sarcoma)
Summary of the method: as §1

[20] = tested on: EW-18 (Ewing's Sarcoma)
Summary of the method: as §1

| SMILES | Bliss excess [1] | Bliss excess [2] | Bliss excess [3] | Bliss excess [4] | Bliss excess [5] | Bliss excess [6] | Bliss excess [7] | Bliss excess [8] | Bliss excess [9] | Bliss excess [10] | Bliss excess [11] | Bliss excess [12] | Bliss excess [13] | Bliss excess [14] | Bliss excess [15] | Bliss excess [16] | Bliss excess [17] | Bliss excess [18] | Bliss excess [19] | Bliss excess [20] |
| --- | --- | --- | --- | --- | --- | --- | --- | --- | --- | --- | --- | --- | --- | --- | --- | --- | --- | --- | --- | --- |
| CN(CCO)CC[C@H](CSc1ccccc1)Nc1ccc(S(=O)(=O)NC(=O)c2ccc(N3CCC([C@@H](O)c4ccccc4-c4ccc(Cl)cc4)CC3)cc2)cc1S(=O)(=O)C(F)(F)F [AZD4320] + C1CN(CCC1(C(=O)N[C@@H](CCO)C2=CC=C(C=C2)Cl)N)C3=NC=NC4=C3C=CN4 [Capivasertib] (first compound max 1 µM, 7x7, partner max 3 µM) | 0.0319 | -0.0403 | 0.0699 | -0.0344 | -0.0467 | -0.0174 | -0.0256 | -0.0501 | -0.0513 | 0.078 | -0.0402 | -0.0459 | -0.0886 | -0.103 | -0.0506 | -0.103 | -0.1 | -0.0761 | -0.0633 | -0.0124 |
| CN(CCO)CC[C@H](CSc1ccccc1)Nc1ccc(S(=O)(=O)NC(=O)c2ccc(N3CCC([C@@H](O)c4ccccc4-c4ccc(Cl)cc4)CC3)cc2)cc1S(=O)(=O)C(F)(F)F [AZD4320] + C=CCn1c(=O)c2cnc(Nc3ccc(N4CCN(C)CC4)cc3)nc2n1-c1cccc(C(C)(C)O)n1 [AZD1775] (first compound max 1 µM, partner max 1 µM) | 0.0369 | 0.0051 | -0.0052 | -0.0682 | 0.0083 | 0.075 | 0.0362 | 0.0699 | -0.0234 | 0.0344 | -0.0521 | 0.0598 | -0.0588 | 0.0086 | 0.0329 | 0.0509 | 0.0138 | -0.0054 | 0.0172 | 0.0349 |
| CN(CCO)CC[C@H](CSc1ccccc1)Nc1ccc(S(=O)(=O)NC(=O)c2ccc(N3CCC([C@@H](O)c4ccccc4-c4ccc(Cl)cc4)CC3)cc2)cc1S(=O)(=O)C(F)(F)F [AZD4320] + CCN(CCO)CCCOc1ccc2c(Nc3cc(CC(=O)Nc4cccc(F)c4)[nH]n3)ncnc2c1 [AZD2811] (first compound max 1 µM, 7x7, partner max 1 µM) | -0.0049 | 0.0258 | -0.0135 | -0.0211 | -0.0207 | 0.0283 | -0.0085 | -0.0283 | -0.0333 | -0.0176 | -0.0353 | -0.0008 | -0.0263 | 0.0195 | -0.0063 | 0.006 | -0.0659 | -0.0115 | -0.0076 | -0.0795 |
| CN(CCO)CC[C@H](CSc1ccccc1)Nc1ccc(S(=O)(=O)NC(=O)c2ccc(N3CCC([C@@H](O)c4ccccc4-c4ccc(Cl)cc4)CC3)cc2)cc1S(=O)(=O)C(F)(F)F [AZD4320] + CN(C)CCCOc1ccc(-c2ccc3ncc4c(c3c2)n(C2CCOCC2)c(=O)n4C)cn1 [AZD0156] (first compound max 1 µM, 7x7, partner max 1 µM) | 0.0937 | -0.0333 | -0.0255 | -0.0341 | -0.0824 | 0.0044 | -0.0408 | -0.0484 | -0.0378 | 0.0427 | -0.0432 | -0.0521 | -0.0283 | -0.0474 | 0.0226 | 0.007 | -0.0411 | -0.0423 | -0.0303 | 0.0042 |
| CN(CCO)CC[C@H](CSc1ccccc1)Nc1ccc(S(=O)(=O)NC(=O)c2ccc(N3CCC([C@@H](O)c4ccccc4-c4ccc(Cl)cc4)CC3)cc2)cc1S(=O)(=O)C(F)(F)F [AZD4320] + C[C@@H]1COCCN1C2=NC(=NC(=C2)C3(CC3)[S@](=N)(=O)C)C4=C5C=CNC5=NC=C4 [AZD6738] (first compound max 1 µM, 7x7, partner max 10 µM) | 0.0481 | -0.0181 | -0.0524 | -0.0537 | -0.0709 | 0.0055 | 0.0174 | -0.0586 | -0.0448 | 0.0409 | -0.0335 | -0.0206 | -0.115 | -0.0456 | 0.014 | -0.0806 | -0.0084 | -0.0587 | -0.0009 | -0.0539 |
| CN(CCO)CC[C@H](CSc1ccccc1)Nc1ccc(S(=O)(=O)NC(=O)c2ccc(N3CCC([C@@H](O)c4ccccc4-c4ccc(Cl)cc4)CC3)cc2)cc1S(=O)(=O)C(F)(F)F [AZD4320] + C[C@@H](Nc1cc(F)cc(F)c1)c1cc(C(=O)N(C)C)cc2c(=O)cc(N3CCOCC3)oc12 [AZD8186] (first compound max 1 µM, 7x7, partner max 3 µM) | 0.0908 | 0.0133 | -0.0545 | 0.0097 | 0.0304 | 0.0137 | 0.0257 | 0.0113 | -0.0239 | 0.0634 | 0.0489 | -0.0322 | -0.0417 | 0.0029 | 0.0118 | 0.0959 | -0.117 | -0.0094 | -0.015 | 0.0747 |
